The record followed here is patent publication US20110294722A1, “ANTIMICROBIAL PEPTIDES” (priority 2008, published 2011).

Where two headings read alike, the source gives them in different places. No end group written: not given here.

Test [1] deals with Alternaria alternata. The experiment in a line: In-vitro inhibition assay (MIC), Example 2. It is filed as cell-based. Particulars: OD590 nm. As for the experimental part: (§1) In-vitro inhibition assays were performed in sterile flat-bottom 96-well plates (Greiner bio-one, Frickenhausen). Antimicrobial peptides were dissolved in 0.01% acetic acid containing 0.2% BSA (500 μg/ml), filter sterilized and stored at −20° C. For inhibition assays dilutions of peptides ranging from 5 to 200 μg/ml were prepared and 10 μl (antibacterial assay) or 20 μl (antifungal assay) of each concentration was loaded per well.
(§2) Spores of fungi were collected by water washes of sporulating cultures grown on 2% malt extract agar and spore concentration was determined by microscopy. The concentration of the spores was adjusted to 1.5-2×10^3 spores/ml in 2% malt extract medium and 80 μl of fungal spores were added per well. The final peptide concentrations used in the fungal inhibition assays were […]. After overnight incubation at room temperature the plate were put on a rotary shaker (300 rpm) for further two days to ensure consistantly growth. Antifungal effects of the peptides were determined by a microplate reader (Alternaria, Fusarium) at OD590 nm or by visual screening of the plates (Botrytis, Cladosporium).
(§3) The lowest peptide concentration leading to complete inhibition of bacterial growth or spore germination/mycelial growth (minimal inhibition concentration, MIC) was determined for each organism-peptide combination. For each peptide concentration two identical inhibition assays were performed.

Test [2] has as its system Botrytis cinerea. The experiment in a line: In-vitro inhibition assay (MIC), Example 2. It is filed as cell-based. Particulars: visual screening. The method, then:
as §1, §2, §3

Test [3] has as its system Cladosporium herbarum. The experiment in a line: In-vitro inhibition assay (MIC), Example 2. It counts as cell-based. As to conditions: visual screening. The method, then: as §1, §2, §3
For test [4], the system named is Pseudomonas corrugata.
Test [5] concerns Pectobacterium carotovorum sub. carotovorum.
Test [6] deals with Xanthomonas vesicatoria. The experiment in a line: In-vitro inhibition assay (MIC and LC), Example 3. It counts as cell-based. The method, then: (§4) In-vitro inhibition assays were performed in sterile flat-bottom 96-well plates (Greiner bio-one, Frickenhausen). Antimicrobial peptides were dissolved in 0.01% acetic acid containing 0.2% BSA (500 μg/ml), filter sterilized and stored at −20° C. For inhibition assays dilutions of peptides ranging from 5 to 200 μg/ml were prepared and 10 μl (antibacterial assay) or 20 (antifungal assay) of each concentration was loaded per well.
(§5) Bacteria colonies from overnight agar plate cultures were resuspended into 5 ml LB-medium or HPG-medium (OD600 nm=0.08-0.1) and diluted into LB-medium/HPG-medium (1:100). 90 μl of this suspension containing about 10^5-10^6 CFU/ml of tested bacteria were added to each well resulting in final peptide concentrations of 0, 0.5, 1, 2, 5, 10, and 20 μg/ml. […] The lowest concentration, in which there is no observable growth (>90% inhibition) is referred to as minimal inhibitory concentration (MIC). […] For each peptide concentration two identical inhibition assays were performed.

Test [7] deals with Clavibacter michiganensis. Put plainly: In-vitro inhibition assay (MIC and LC), Example 3. It counts as cell-based. As for the experimental part:
as §4, §5

The subject of test [8] is Xanthomonas vesicatoria.
Test [9] has as its system Pseudomonas syringae pv. syringae.
Test [10] concerns Pectobacterium carotovorum. It is filed as cell-based. The method, then: as §4, §5
Test [11] deals with Pseudomonas corrugata. It is filed as cell-based. The method, then: as §4, §5
In test [12] the test system is Pseudomonas syringae pv. tomato. It counts as cell-based. As for the experimental part:
as §4, §5

Test [13] relates to Pseudomonas syringae pv. syringae. It counts as cell-based. The method, then: as §4, §5
Test [14] concerns Clavibacter michiganensis sub. michiganensis. As to conditions: overnight 25° C.
Test [15] has as its system Pseudomonas syringae pv. tomato.
Test [16] deals with phytopathogenic fungi. The experiment in a line: Antifungal inhibition assay, summary statement. It counts as cell-based. Particulars: summary of Table 1. As for the experimental part:
as §1, §2
The lowest peptide concentration leading to complete inhibition of bacterial growth or spore germination/mycelial growth (minimal inhibition concentration, MIC) was determined for each organism-peptide combination. […]

Take KKKAARALKRAL-NH2 [Sp4, KKKAARALKRAL]: the “Minimal inhibition concentration (MIC) for complete inhibition of spore germination/mycelial growth” value was above 100 µg/mL in test [1], above 100 µg/mL in test [2] and 40 µg/mL in [3].

For the substance RKKRLKLLKRLV-NH2 [SP1], the “Minimal inhibition concentration (MIC) for complete inhibition of bacterial growth” value in test [4] is 2 µg/mL; in [5] it was above 40 µg/mL; in test [8] it was 2 µg/mL; in [9], 2 µg/mL; in test [14] it was 1 µg/mL; in test [15], 1 µg/mL. Also, the “MIC (>90% inhibition)” value is 0.5 µg/mL in test [6] (1-2 days at 25° C.); 5.0/5.0 μg/ml in test [7] (1-2 days at 25° C.); >10/>10 μg/ml in [10]; 0.5 µg/mL in [11]; 10/10 μg/ml in test [12]; 0.1 µg/mL in test [13]. Also, the “LC (lethal concentration, 100% inhibition)” value in test [6] (at least 4 days of incubation) is 1.0 µg/mL; in test [7] (at least 4 days of incubation) it was 5.0/5.0 μg/ml; in [10] (Pectobacterium carotovorum, at least 4 days of incubation), >10/>10 μg/ml; in test [11] (Pseudomonas corrugata, at least 4 days of incubation) it was 1.0 µg/mL; in test [12] (Pseudomonas syringae pv. tomato, at least 4 days of incubation), 10/10 μg/ml; in [13] (Pseudomonas syringae pv. syringae, at least 4 days of incubation), 0.5 µg/mL. Besides, the figures for the “Minimal inhibition concentration (MIC) for complete inhibition of spore germination/mycelial growth” value in test [1], in test [2] and in test [3] were above 100 µg/mL, above 100 µg/mL and 10 µg/mL, respectively.

Turning to RKRAARLLKRLV-NH2 [Sp2], the “Minimal inhibition concentration (MIC) for complete inhibition of spore germination/mycelial growth” value in test [1] was above 100 µg/mL; in [2], above 100 µg/mL; in [3] it was 20 µg/mL.

With RKRFARFAKRAV-NH2 [Sp3], the figures for the “Minimal inhibition concentration (MIC) for complete inhibition of spore germination/mycelial growth” value in [1], in test [2] and in test [3] were above 100 µg/mL, above 100 µg/mL and 40 µg/mL, respectively.

Regarding “SP1-D: Polypeptide SP1 (RKKRLKLLKRLV) with D-amino acids incorporated; D positions marked bold/italic in b61, not recoverable (also: D-amino acids at unstated positions)”, the “Minimal inhibition concentration (MIC) for complete inhibition of bacterial growth” value was 20 µg/mL in test [4] (Pseudomonas corrugata, overnight 25° C.); above 40 µg/mL in [5] (Pectobacterium carotovorum sub. carotovorum, overnight 25° C.); 40 µg/mL in [8] (Xanthomonas vesicatoria, overnight 25° C.); 5 µg/mL in [9] (Pseudomonas syringae pv. syringae, overnight 25° C.); 40 µg/mL in [14]; 5 µg/mL in [15] (Pseudomonas syringae pv. tomato, overnight 25° C.). Moreover, the “Minimal inhibition concentration (MIC) for complete inhibition of spore germination/mycelial growth” value in [1] was 20 µg/mL; in test [2], above 40 µg/mL; in test [3], 20 µg/mL. Further, the “Efficacy against phytopathogenic fungi” value in test [16] is “high efficacy against phytopathogenic fungi”.
